How the values were obtained:
A375 cells = experiment: Inhibition of cancer cell growth, MTT or MTS assay, A375; assay type: cell-based; conditions: Homo sapiens, A-375, 72 h incubation
Procedure: (§1) Inhibition of cell growth by compounds was measured using MTT or MTS assay. Tumor cell lines were purchased from ATCC (American Type Culture Collection, Manassas, Va.). All cell lines were maintained in RPMI 1640 (Hyclone) supplemented with 10% fetal bovine serum (FBS, Hyclone), glutamine (2 mM, Hyclone), and antibiotics (penicillin 100 U/mL and streptomycin 50 μg/mL) at 37° C. in a humidified atmosphere of 5% CO2 in air. Taxol (as a positive control, Sigma) and compounds were dissolved in DMSO (Sigma), and the final concentration of DMSO in the medium was 1%. Tumor cells were plated in 96-well plates at densities of about 2000 (A375) or 4000 (A549 and Colo205) cells/well of a 96-well plate and allowed to adhere/grow for 24 h. They were then treated with various concentrations of drug and incubated for 72 h. For MTT method, medium was then removed by inverting and tapping the plates. 100 μL of MTT (0.5 mg/ml) was added to each well followed by an incubated at 37° C. for 4 h. MTT was then removed and 200 μL of DMSO was added to each well, and the ODs at 570 nm were measured after a 5 second shaking cycle in a 96-well spectrophotometer. For MTS method, 20 μL MTS (CellTiter 96 Aqueous One Solution, Promega) was added to each well followed by an incubated at 37° C. for 2-4 h, solutions were then directly put in a 96-well spectrophotometer, and the ODs at 490 nm were measured.
(§2) All concentrations of compounds were tested in triplicate and controls were averaged over 4 wells. IC50 was calculated by plotting the concentration of compound vs the percentage of inhibition in treated wells using GraphPad Prism 5. […] The scale utilized in Tables 7-9 is as follows: +++ less than 1000 nM; ++ between 1000 nM and 5000 nM; and + greater than 5000 nM. The scale utilized in […]

BRAF V600E = target: T1, BRAF V600E (Homo sapiens, UniProt P15056, V600E); experiment: Z'-LYTE kinase inhibition assay against BRAF V600E; assay type: biochemical; conditions: % inhibition at 1 μM, Z'-LYTE method
T1 construct: purchased Invitrogen
T1 sequence (P15056 whole entry V600E): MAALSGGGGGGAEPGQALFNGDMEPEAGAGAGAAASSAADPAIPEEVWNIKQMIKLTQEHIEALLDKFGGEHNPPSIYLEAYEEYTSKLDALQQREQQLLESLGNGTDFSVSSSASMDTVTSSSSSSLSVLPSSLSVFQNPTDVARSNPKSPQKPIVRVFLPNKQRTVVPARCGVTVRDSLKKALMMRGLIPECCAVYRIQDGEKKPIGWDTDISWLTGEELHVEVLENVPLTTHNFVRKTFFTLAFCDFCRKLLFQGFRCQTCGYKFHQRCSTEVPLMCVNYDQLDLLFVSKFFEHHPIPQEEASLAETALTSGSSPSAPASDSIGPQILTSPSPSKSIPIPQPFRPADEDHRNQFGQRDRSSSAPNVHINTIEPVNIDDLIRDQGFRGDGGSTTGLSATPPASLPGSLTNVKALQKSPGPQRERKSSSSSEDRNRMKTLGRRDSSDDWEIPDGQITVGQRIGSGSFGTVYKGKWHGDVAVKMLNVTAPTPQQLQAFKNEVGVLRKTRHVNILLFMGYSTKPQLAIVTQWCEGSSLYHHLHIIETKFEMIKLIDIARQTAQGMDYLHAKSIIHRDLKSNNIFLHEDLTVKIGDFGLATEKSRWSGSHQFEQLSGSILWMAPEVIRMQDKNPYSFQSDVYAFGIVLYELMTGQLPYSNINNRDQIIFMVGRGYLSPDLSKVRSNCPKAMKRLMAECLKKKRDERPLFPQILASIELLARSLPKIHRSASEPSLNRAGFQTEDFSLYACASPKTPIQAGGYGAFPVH
Procedure: Inhibitory activities Inhibitory activities of compounds against BRAF, and BRAF V600E were measured by Invitrogen using Z′-LYTE® Method as briefly described in the following. 4× Test compounds are dissolved in 1% DMSO. […] ATP solutions are diluted to a 4×ATP working concentration in Kinase Buffer (50 mM HEPES pH 7.5, 0.01% BRIJ-35, 10 mM MgCl2, 1 mM EGTA). Reaction started by 30-second shaking of mixture consisting of 2.5 μL 4× test compound, […] and 2.5 μL 4×ATP Solution on Bar-coded Corning, low volume NBS, black 384-well plate (Corning Cat. #3676). Then the mixture was incubated for 60-minute at room temperature for the kinase reaction, followed by addition of 5 μL of a 1:1024 dilution of development reagent A and 30-second plate shake. The mixture was then incubated for another 60-minute at room temperature for development reaction. Fluorescence was read by plate reader. IC50 was calculated by plotting the concentration of compound vs the percentage of inhibition in treated wells using GraphPad Prism 5.
Table 2 and 3 show % inhibition at 1 μM of several compounds of the invention against BRAF and BRAF V600E, respectively, using Z′-LYTE® method.
The scale utilized in Table 4 is as follows: +++ less than 100 nM; and ++ greater than 100 nM.

A549 cells = experiment: Inhibition of cancer cell growth, MTT or MTS assay, A549; assay type: cell-based; conditions: Homo sapiens, 72 h incubation
Procedure: as §1, §2

KDR (VEGFR2) = target: T2, KDR (VEGFR2) (Homo sapiens, UniProt P35968); experiment: Z'-LYTE kinase inhibition assay against KDR; assay type: biochemical; conditions: % inhibition at 1 μM, Z'-LYTE method
T2 construct: purchased Invitrogen
T2 sequence (P35968 20-1356): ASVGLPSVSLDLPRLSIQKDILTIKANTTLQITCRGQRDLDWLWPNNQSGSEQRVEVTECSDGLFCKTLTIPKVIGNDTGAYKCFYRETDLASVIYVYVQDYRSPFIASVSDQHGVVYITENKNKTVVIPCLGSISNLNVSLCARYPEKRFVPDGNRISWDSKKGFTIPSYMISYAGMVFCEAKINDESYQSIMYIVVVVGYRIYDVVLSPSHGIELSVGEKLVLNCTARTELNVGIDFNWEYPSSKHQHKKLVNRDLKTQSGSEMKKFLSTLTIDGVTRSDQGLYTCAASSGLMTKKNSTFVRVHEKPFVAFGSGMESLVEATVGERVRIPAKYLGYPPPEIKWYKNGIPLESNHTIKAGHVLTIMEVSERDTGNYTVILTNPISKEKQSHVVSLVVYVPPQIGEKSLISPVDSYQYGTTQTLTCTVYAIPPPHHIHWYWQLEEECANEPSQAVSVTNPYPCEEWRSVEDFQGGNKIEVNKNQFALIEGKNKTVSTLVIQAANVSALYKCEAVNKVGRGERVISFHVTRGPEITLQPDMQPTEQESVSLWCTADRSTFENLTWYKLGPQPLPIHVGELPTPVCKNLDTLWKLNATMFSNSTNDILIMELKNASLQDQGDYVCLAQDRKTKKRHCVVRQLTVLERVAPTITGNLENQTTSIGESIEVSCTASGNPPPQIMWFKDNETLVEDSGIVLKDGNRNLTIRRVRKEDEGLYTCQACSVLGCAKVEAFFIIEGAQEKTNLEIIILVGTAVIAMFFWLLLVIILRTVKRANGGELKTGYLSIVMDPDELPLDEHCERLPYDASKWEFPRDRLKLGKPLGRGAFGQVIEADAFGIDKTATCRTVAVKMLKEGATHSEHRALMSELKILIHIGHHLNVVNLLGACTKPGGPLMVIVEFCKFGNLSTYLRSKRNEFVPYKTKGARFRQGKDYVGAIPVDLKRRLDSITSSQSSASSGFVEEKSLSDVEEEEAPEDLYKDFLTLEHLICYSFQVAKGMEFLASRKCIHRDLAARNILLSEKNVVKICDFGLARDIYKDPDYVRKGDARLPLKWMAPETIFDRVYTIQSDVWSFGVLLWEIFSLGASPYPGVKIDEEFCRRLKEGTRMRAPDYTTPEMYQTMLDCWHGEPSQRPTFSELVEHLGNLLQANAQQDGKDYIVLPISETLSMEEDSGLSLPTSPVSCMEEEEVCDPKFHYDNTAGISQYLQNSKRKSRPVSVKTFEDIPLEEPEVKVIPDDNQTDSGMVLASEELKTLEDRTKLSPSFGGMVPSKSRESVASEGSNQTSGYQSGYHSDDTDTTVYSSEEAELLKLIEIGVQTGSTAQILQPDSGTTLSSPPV
Procedure: Inhibitory activities of compounds against KDR (VEGFR2) were also measured by Invitrogen using Z′-LYTE® Method as described above with the following modification. The 2×KDR (VEGFR2)/Tyr 01 mixture is prepared in 50 mM HEPES pH 7.5, 0.01% BRIJ-35, 10 mM MgCl2, 1 mM EGTA. The final 10 μL Kinase Reaction consists of 0.5-11.7 ng KDR (VEGFR2) and 2 μM Tyr 01 in 50 mM HEPES pH 7.5, 0.01% BRIJ-35, 10 mM MgCl2, 1 mM EGTA. After the 1 hour Kinase Reaction incubation, 5 μL of a 1:256 dilution of Development Reagent B is added.
The scale utilized in Table 6 is as follows: +++ less than 100 nM; and ++ greater than 100 nM

IC50 (A375 cells) [µM]	inhibition at 1 µM (BRAF V600E) [%]	IC50 (A549 cells) [µM]	inhibition at 1 µM (KDR (VEGFR2)) [%]	SMILES
< 1				O=C(Nc1ccc(C(=O)c2ccc3ncc(N4CCNCC4)nc3c2)c(F)c1)c1ccc(Cl)c(C(F)(F)F)c1 [Compound C43, 4-chloro-N-(3-fluoro-4-(3-(piperazin-1-yl)quinoxaline-6-carbonyl)phenyl)-3-(trifluoromethyl)benzamide]
> 5				O=C(Nc1ccc(C(=O)c2ccc3ncc(N4CCOCC4)nc3c2)c(F)c1)c1cccc(Cl)c1 [Compound C37, 3-chloro-N-(3-fluoro-4-(3-morpholinoquinoxaline-6-carbonyl)phenyl)benzamide]
1 to 5	70 to 89	> 5	< 70	Cn1ccc(NC(=O)Nc2ccc(C(=O)c3ccc4ncc(N5CCNCC5)nc4c3)c(F)c2)n1 [Compound C31, 1-(3-fluoro-4-(3-(piperazin-1-yl)quinoxaline-6-carbonyl)phenyl)-3-(1-methyl-1H-pyrazol-3-yl)urea]
	< 70	> 5	< 70	N#Cc1cnc2ccc(C(=O)c3ccc(NC(=O)Nc4ccc(Cl)c(C(F)(F)F)c4)cc3F)cc2n1 [Compound C30, 1-(4-chloro-3-(trifluoromethyl)phenyl)-3-(4-(3-cyanoquinoxaline-6-carbonyl)-3-fluorophenyl)urea]
1 to 5				O=C(Nc1ccc(C(=O)c2ccc3ncc(N4CCNCC4)nc3c2)c(F)c1)c1ccc(Cl)cc1 [Compound C40, 4-chloro-N-(3-fluoro-4-(3-(piperazin-1-yl)quinoxaline-6-carbonyl)phenyl)benzamide]
	< 70	1 to 5	< 70	O=C(Nc1ccc(C(=O)c2ccc3ncc(N4CCOCC4)nc3c2)c(F)c1)Nc1ccc(Cl)c(C(F)(F)F)c1 [Compound C25]
1 to 5				O=C(Nc1ccc(C(=O)c2ccc3ncc(N4CCNCC4)nc3c2)c(F)c1)c1cccc(C(F)(F)F)c1 [Compound C42, N-(3-fluoro-4-(3-(piperazin-1-yl)quinoxaline-6-carbonyl)phenyl)-3-(trifluoromethyl)benzamide]
> 5				O=C(Nc1ccc(C(=O)c2ccc3ncc(N4CCOCC4)nc3c2)c(F)c1)c1ccc(Cl)cc1 [Compound C35, 4-chloro-N-(3-fluoro-4-(3-morpholinoquinoxaline-6-carbonyl)phenyl)benzamide]
> 5				O=C(Nc1ccc(C(=O)c2ccc3ncc(N4CCOCC4)nc3c2)c(F)c1)c1ccc(Cl)c(C(F)(F)F)c1 [Compound C36, 4-chloro-N-(3-fluoro-4-(3-morpholinoquinoxaline-6-carbonyl)phenyl)-3-(trifluoromethyl)benzamide]
1 to 5	< 70	1 to 5	70 to 89	O=C(Nc1ccc(C(=O)c2ccc3ncc(N4CCOCC4)nc3c2)cc1)Nc1ccc(F)c(C(F)(F)F)c1 [Compound C06, 1-(4-fluoro-3-(trifluoromethyl)phenyl)-3-(4-(3-morpholinoquinoxaline-6-carbonyl)phenyl)urea]
> 5				O=C(Nc1ccc(C(=O)c2ccc3ncc(N4CCOCC4)nc3c2)c(F)c1)c1cccc(F)c1 [Compound C34, 3-fluoro-N-(3-fluoro-4-(3-morpholinoquinoxaline-6-carbonyl)phenyl)benzamide]
1 to 5	> 89		< 70	Cc1cc(NC(=O)Nc2ccc(C(=O)c3ccc4ncc(N5CCNCC5)nc4c3)c(F)c2)no1 [Compound C33, 1-(3-fluoro-4-(3-(piperazin-1-yl)quinoxaline-6-carbonyl)phenyl)-3-(5-methylisoxazol-3-yl)urea]
	70 to 89	> 5	< 70	O=C(Nc1ccc(F)cc1)Nc1ccc(C(=O)c2ccc3ncc(N4CCOCC4)nc3c2)c(F)c1 [Compound C23, 1-(3-fluoro-4-(3-morpholinoquinoxaline-6-carbonyl)phenyl)-3-(4-fluorophenyl)urea]
	70 to 89		< 70	Cn1cc(NC(=O)Nc2ccc(C(=O)c3ccc4ncc(N5CCNCC5)nc4c3)c(F)c2)cn1 [Compound C32, 1-(3-fluoro-4-(3-(piperazin-1-yl)quinoxaline-6-carbonyl)phenyl)-3-(1-methyl-1H-pyrazol-4-yl)urea]
1 to 5	< 70	1 to 5	< 70	N#Cc1cnc2ccc(C(=O)c3ccc(NC(=O)Nc4cccc(C(F)(F)F)c4)cc3F)cc2n1 [Compound C29, 1-(4-(3-cyanoquinoxaline-6-carbonyl)-3-fluorophenyl)-3-(3-(trifluoromethyl)phenyl)urea]
	< 70	> 5	< 70	O=C(Nc1cccc(F)c1)Nc1ccc(C(=O)c2ccc3ncc(N4CCOCC4)nc3c2)c(F)c1 [Compound C22, 1-(3-fluoro-4-(3-morpholinoquinoxaline-6-carbonyl)phenyl)-3-(3-fluorophenyl)urea]
< 1	< 70	1 to 5	< 70	O=C(Nc1ccc(C(=O)c2ccc3ncc(N4CCOCC4)nc3c2)cc1)Nc1ccc(C(F)(F)F)cc1 [Compound C08, 1-(4-(3-morpholinoquinoxaline-6-carbonyl)phenyl)-3-(4-(trifluoromethyl)phenyl)urea]
1 to 5				O=C(Nc1ccc(C(=O)c2ccc3ncc(N4CCNCC4)nc3c2)c(F)c1)c1cccc(F)c1 [Compound C39, 3-fluoro-N-(3-fluoro-4-(3-(piperazin-1-yl)quinoxaline-6-carbonyl)phenyl)benzamide]
1 to 5	< 70	1 to 5	70 to 89	O=C(Nc1ccc(C(=O)c2ccc3ncc(N4CCOCC4)nc3c2)cc1)Nc1ccc(Cl)c(C(F)(F)F)c1 [Compound C07, 1-(4-chloro-3-(trifluoromethyl)phenyl)-3-(4-(3-morpholinoquinoxaline-6-carbonyl)phenyl)urea]
1 to 5				O=C(Nc1ccc(C(=O)c2ccc3ncc(N4CCOCC4)nc3c2)c(F)c1)c1cccc(C(F)(F)F)c1 [Compound C38, N-(3-fluoro-4-(3-morpholinoquinoxaline-6-carbonyl)phenyl)-3-(trifluoromethyl)benzamide]
> 5	70 to 89	> 5	< 70	O=C(Nc1ccc(C(=O)c2ccc3ncc(C4CCNCC4)nc3c2)cc1)Nc1cccc(C(F)(F)F)c1 [Compound C27, 1-(4-(3-(piperidin-4-yl)quinoxaline-6-carbonyl)phenyl)-3-(3-(trifluoromethyl)phenyl)urea]
< 1				O=C(Nc1ccc(C(=O)c2ccc3ncc(N4CCNCC4)nc3c2)c(F)c1)c1cccc(Cl)c1 [Compound C41, 3-chloro-N-(3-fluoro-4-(3-(piperazin-1-yl)quinoxaline-6-carbonyl)phenyl)benzamide]

SMILES	IC50 (A375 cells) [µM]	inhibition at 1 µM (BRAF V600E) [%]	IC50 (A549 cells) [µM]	inhibition at 1 µM (KDR (VEGFR2)) [%]
N#Cc1ccc(NC(=O)Nc2ccc(C(=O)c3ccc4ncc(N5CCOCC5)nc4c3)c(F)c2)cc1C(F)(F)F [Compound C18, 1-(4-cyano-3-(trifluoromethyl)phenyl)-3-(3-fluoro-4-(3-morpholinoquinoxaline-6-carbonyl)phenyl)urea]	1 to 5	70 to 89	1 to 5	70 to 89

Source: patent publication US10047059B2, “Substituted quinoxalines for inhibiting kinase activity” (NEUPHARMA, INC., priority 2012, dated 2018)
